In patent publication US8222297B2, “Aniline or phenol mustards linked to DNA-affinic molecules or water-soluble aromatic rings and their use as cancer therapeutic agents” (Academia Sinica, priority 2007, dated 2012):

Assays:
[1] = test system: Human mammary carcinoma (MX-1) tumor cells; test: In vitro cytotoxicity, SRB assay; conditions: read-out: IC50 MX-1; SRB assay, 72-hr incubation
[2] = test system: human mammary carcinoma MX-1 xenograft; test: Antitumor therapeutic effect in nude mice bearing MX-1 xenograft; assay type: in vivo; conditions: for log cell kill: estimated by Eq. 4 from remission time; for Duration complete remission maintained without relapse: one cycle 5-dose-treatment, 3 out of 3 mice
Method: (§1) Athymic nude mice bearing the nu/nu gene were used for human breast tumor MX-1 xenograft (FIGS. 3 and 4) and human brain glioma U87 GM xenograft (FIG. 5). Nude mice were obtained from National Cancer Institute, Frederick, Md. Male mice 6 weeks old or older weighing 22 g or more were used for experiments with subcutaneous tumor inoculation as described previously.^62 Drug was administrated via the tail vein by iv injection. Tumor volumes were assessed by measuring length×width×height (or width) by using caliper. Vehicle used was 20 μL DMSO in 180 μL saline. All animal studies were conducted in accordance with the guidelines of the U.S. National Institutes of Health Guide for the Care and Use of Animals and the protocol approved by the Institutional Animal Care and Use Committee.
(§2) Animals. Athymic nude mice bearing the nu/nu gene were obtained from NCI, Frederick, Md. and used for all human tumor xenografts. Male nude mice 6 weeks or older weighing 20-24 g or more were used. Compounds were administered via the tail vein for i.v. injection or infusion as described previously.^59 A typical formulation for chemotherapeutic studies for each drug was dissolved in DSMO to make a 25 mg/ml fresh solution, 0.4 ml of this solution was mixed with 0.3 ml of Tween 80, plus 1.3 ml to make 2 ml of 5 mg/ml solution. Bolus injection volume was 0.1-0.2 ml per mouse. Tumor volume was assessed by measuring length×width×height (or width) by using a caliper. For tumor-bearing nude mice during the course of the experiment, the body weight refers to total weight minus the weight of the tumor. All animal studies were conducted in accordance with the guidelines for the National Institute of Health Guide for the Care and Use of Animals and the protocol approved by the Institutional Animal Care and Use Committee.
The therapeutic effects of a drug against human tumor xenografts in nude mice, under the optimal therapeutic conditions but without any lethality due to drug toxicity, the following degrees of therapeutic effects are defined and calculated by the following formula:
[formula] • where T0 is the initial tumor size (in mm^3) at beginning of drug treatment; • Tc is tumor size of untreated control group on a given date; and • Tx is tumor size of the drug treated group on a given date.
[formula] • Where T0 and Tx are as specified as above. • Tumor disappearance (complete remission or CR) is defined by the effect where [Tx=0] for a period of time (in days) for a proportion of animals (NCR/N), where N is the total number of animals in the group, and NCR is the number of mice in the group that achieved CR. • Tumor relapse is quantitatively calculated by [The Day tumor relapsed(Drelp)−The Day CR achieved(DCR)] (Eq. 3) • for a proportion of animals (Nrelp/N) where N is the total number of animals in the group, and Nrelp is the number of the mice in the group that relapsed. • The log cell kill (LCK) of the tumor tissue after a given chemotherapy that reached CR is estimated by: LCK=log [2^(Tumor remission in days/Tumor doubling time in days)] (Eq. 4)

[3] = test system: Human colon carcinoma HCT-116 cells; test: In vitro cytotoxicity, SRB assay; conditions: read-out: IC50 HCT-116; SRB assay, 72-hr incubation
[4] = test system: CCRF-CEM human lymphoblastic leukemia cells; test: In vitro cytotoxicity, XTT assay; conditions: read-out: IC50 CCRF-CEM; XTT assay, 72-hr incubation
CCRF-CEM/Taxol = test: In vitro cytotoxicity, XTT assay, taxol-resistant subline; conditions: for fold of cross-resistant, CCRF-CEM/Taxol vs IC50 of parent cell line: number in brackets; for IC50: read-out: IC50 CCRF-CEM/Taxol, XTT assay, 72-hr incubation
[5] = test system: human glioma U87 GM s.c. xenograft; test: Therapeutic effect in nude mice bearing U87 glioma xenograft; assay type: in vivo
Method: as §1
The therapeutic effects of N-mustard compounds, BO-1049, 1051 and 1055, against human glioma U87 GM s.c. xenograft in nude mice were given in FIG. 5, A and B. U87 glioma is known to be refractory tumor that can not be effectively treated with cell-cycle specific anti-tumor drugs such as taxol, epothilones, or arabinosylcytosine. However, cell-cycle non-specific drugs such as alkylating agent, cyclophosphamide or BCNU, yields better therapeutic results. […] However, upon 6 days of recession of treatment with BO-1049 or BO-1055, the tumor began to regrow.
as §2

[6] = unpublished results of the applicant
[7] = test system: various human leukemia and solid tumor; conditions: in vitro and in vivo; cited from earlier work
[8] = 150 mg/kg, Q2D×5, i.v.-injection

Compound `Cc1cc(Oc2ccc(NC(=O)Oc3ccc(N(CCCl)CCCl)cc3)cc2)c2cc3c(cc2n1)OCO3` has a melting point of 183 to 184 °C.

In the case of `Cc1cc(NNC(=O)Nc2ccc(N(CCCl)CCCl)cc2)c2ccccc2n1`, the melting point is reported as 235 to 236 °C.

For “1-{4-[Bis-(2-chloroethyl)amino]phenyl-3-[6-methoxy-2-(4-methoxyphenyl)quinolin-4-yl]urea [BO-1049]”, the IC50 [1] was 1840 nM, the “Tumor remission achieved” value ([2]; doses and schedules as in Table 2 (30-150 mg/kg, i.v.)) was “complete tumor remission” and the log cell kill [2] was > 4.1. The “Duration complete remission maintained without relapse” value [2] was “over 70 days”, the IC50 [3] was 3740 nM and the IC50 [4] was 366 nM. For the same compound, the “fold of cross-resistant, CCRF-CEM/Taxol vs IC50 of parent cell line” value (CCRF-CEM/Taxol) was 1.6 x, the IC50 (CCRF-CEM/Taxol) was 587 nM and the “time after end of treatment at which tumor began to regrow” value [5, 8] was 6 days. The tumor-growth suppression [5, 8] was “complete tumor-growth suppression” and the “therapeutic effect compared with cyclophosphamide” value ([5]; BO-1049 150, BO-1051 100, BO-1055 30 mg/kg vs cyclophosphamide 80 mg/kg, all Q2D×5, parallel study) was “superior therapeutic effects than cyclophosphamide”.

Compound `COc1ccc2nc(C)cc(NNC(=O)Nc3ccc(N(CCCl)CCCl)cc3)c2c1` has a melting point of 224 to 225 °C.

In the case of `OCc1cc(Nc2c3ccccc3nc3ccccc23)cc(OCCN(CCCl)CCCl)c1` [BO-0742], the half-life in mice [6] is listed as “about 25 min” and the “cytotoxicity relative to AHMA (times more cytotoxic)” value [7] is listed as > 100 time.

For `COc1cc(N)cc(Nc2c3ccccc3nc3c(OCCN(CCCl)CCCl)cccc23)c1.Cl` [BO-0940, N1-(4-{2-[bis(2-chloroethyl)-amino]-ethoxy}acridin-9-yl)-5-methoxybenzene-1,3-diamine hydrochloride], the “cytotoxicity relative to AHMA (times more cytotoxic)” value [7] is given as > 100 time.

Work on `Cc1cc(Oc2ccc(NC(=O)Nc3ccc(N(CCCl)CCCl)cc3)cc2)c2cc3c(cc2n1)OCO3` yielded a melting point of 217 to 218 °C.

With `CN(C)CCNC(=O)c1cccc(NC(=O)Nc2ccc(N(CCCl)CCCl)cc2)c1.Cl` [BO-1055, 3-(3-{4-[Bis(2-chloroethyl)amino]phenyl}ureido)-N-(2-dimethylaminoethyl)benzamide hydrochloride] the IC50 [1] was 551 nM, the “Maximal body-weight loss (%)” value ([2]; 30 mg/kg, Q2D × 5, i.v.) was 15% and the log cell kill [2] was > 4.1. The “Duration complete remission maintained without relapse” value [2] was “over 70 days”, the IC50 [3] was 661 nM and the IC50 [4] was 127 nM. The “fold of cross-resistant, CCRF-CEM/Taxol vs IC50 of parent cell line” value (CCRF-CEM/Taxol) was 15.4 x, the IC50 (CCRF-CEM/Taxol) was 1200 nM and the “time after end of treatment at which tumor began to regrow” value ([5]; 30 mg/kg, Q2D×5, i.v.-injection) was 6 days.
